From ChEMBL document CHEMBL1201862, “PubChem BioAssay data set” (2004)
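All cell lines were grown in 96-well plates and treated with compound for 48 hours. GI50 marks 50% less growth.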 Calls of active or inactive are those of the source. Cut-off read from the data, not from the text of the source: active = GI50 up to about 1.1 µM and inactive = higher.

Columns and labels:
Assay in all cases: inhibition of tumour cell growth, NCI panel, 48 h
SNB-19 = tested on: SNB-19
OVCAR-5 = tested on: OVCAR-5
HT-29 = tested on: HT-29
COLO 205 = tested on: COLO 205
CCRF-CEM = tested on: CCRF-CEM
SW-620 = tested on: SW-620
M14 = tested on: M14
UO-31 = tested on: UO-31
SNB-78 = tested on: SNB-78
Malme-3M = tested on: Malme-3M
SN12C = tested on: SN12C
KM12 = tested on: KM12
HOP-62 = tested on: HOP-62
HOP-92 = tested on: HOP-92
RXF 393 = tested on: RXF 393
SK-MEL-5 = tested on: SK-MEL-5
HCC 2998 = tested on: HCC 2998

Measured: GI50

C#CCC[C@@H]1O[C@@]1(C)CC/C=C(\C)CC/C=C/C=O
inactive: SNB-19 45.1 µM | OVCAR-5 > 100 µM | HT-29 37.2 µM | COLO 205 26.7 µM | CCRF-CEM 23.3 µM | SW-620 23.3 µM | M14 21.3 µM | UO-31 35.8 µM | SNB-78 25.3 µM | Malme-3M 20 µM | SN12C 30.3 µM | KM12 36.9 µM | HOP-62 > 100 µM | HOP-92 28.5 µM | RXF 393 40.6 µM

CCN(CC)c1ccc(/N=N\c2ccc(-c3nc4ccc[n+](C)c4s3)cc2)cc1
inactive: SNB-19 5.3 µM | OVCAR-5 17.1 µM | HT-29 5.25 µM | COLO 205 3.24 µM | CCRF-CEM 3.05 µM | SW-620 4.75 µM | M14 13.2 µM | UO-31 22.8 µM | SNB-78 4.37 µM | Malme-3M 6.11 µM | SN12C 4.29 µM | KM12 2.76 µM | HOP-62 17.3 µM | HOP-92 10.6 µM | SK-MEL-5 5.48 µM | RXF 393 > 10 µM

O=C1N[C@@H]2CCCC[C@@H]2C12CCCCC2
inactive: SNB-19 > 100 µM | OVCAR-5 > 100 µM | HT-29 > 100 µM | HCC 2998 > 100 µM | CCRF-CEM > 100 µM | SW-620 > 100 µM | M14 > 100 µM | UO-31 > 100 µM | SNB-78 > 100 µM | Malme-3M > 100 µM | SN12C > 100 µM | KM12 > 100 µM | HOP-62 > 100 µM | RXF 393 > 100 µM

NC(=O)CCC(N=C(N)c1csc(C2OC(CO)C(O)C2O)n1)C(=O)O (stereo not given)
inactive: OVCAR-5 > 100 µM | HT-29 > 100 µM | HCC 2998 > 100 µM | COLO 205 > 100 µM | CCRF-CEM > 100 µM | SW-620 > 100 µM | M14 > 100 µM | SNB-78 > 100 µM | Malme-3M > 100 µM | SN12C > 100 µM | KM12 > 100 µM | SK-MEL-5 > 100 µM | RXF 393 > 100 µM

Cc1cccc(Cl)c1NC(N)=S
inactive: SNB-19 81.5 µM | OVCAR-5 63.8 µM | HT-29 43.4 µM | HCC 2998 > 100 µM | COLO 205 > 100 µM | CCRF-CEM 35.6 µM | SW-620 16.6 µM | M14 87.5 µM | UO-31 51.6 µM | SNB-78 77.1 µM | Malme-3M 52 µM | SN12C > 100 µM | KM12 > 100 µM | HOP-62 50.8 µM | HOP-92 35.4 µM | SK-MEL-5 > 100 µM

C=C(C)C(=O)OC1C/C(CO)=C\C(O)C/C(C)=C/C2OC(=O)C(=C)C21 (stereo not given)
inactive: SNB-19 > 100 µM | OVCAR-5 45.8 µM | HT-29 17.6 µM | HCC 2998 > 10 µM | COLO 205 17.1 µM | CCRF-CEM 8.65 µM | SW-620 16.7 µM | M14 17.7 µM | UO-31 > 100 µM | SNB-78 46.3 µM | Malme-3M 20.6 µM | SN12C 20 µM | KM12 19.2 µM | HOP-62 > 100 µM | HOP-92 20.8 µM | SK-MEL-5 21 µM

COC(=O)c1sc(C(=O)OC)c2c1C[S+]([O-])C2
inactive: SNB-19 > 100 µM | OVCAR-5 > 100 µM | HT-29 > 100 µM | HCC 2998 > 100 µM | COLO 205 > 100 µM | CCRF-CEM > 100 µM | SW-620 > 100 µM | M14 > 100 µM | UO-31 > 100 µM | SNB-78 > 100 µM | Malme-3M > 100 µM | KM12 > 100 µM | HOP-92 > 100 µM | SK-MEL-5 > 100 µM | RXF 393 > 100 µM
